Values of other authors in patent US20080274215A1, “COMPOSITION FOR TREATMENT OF COLD AND FLU” (NORTHERN HOLDINGS INC., priority 2007, published 2008).

For `C=C1CCC2C(C)(CO)C(O)CCC2(C)C1C/C=C1/C(=O)OCC1O` (stereo not shown) [AG, 3-[2-[decahydro-6-hydroxy-5-(hydroxymethyl)-5,8a-dimethyl-2-methylene-1-napthalenyl]ethylidene]dihydro-4-hydroxy-2(3H)-furanone], the solubility in water is given as “sparingly soluble”.
